Key:
[1] = system: wild type neonatal mouse cardiomyocytes (NMCMs); experiment: Gene expression (qPCR) in cultured wild type neonatal mouse cardiomyocytes after treatment; type: cell-based; details: for expression of mitosis regulating genes / Wee1 gene expression / expression of clock (circadian) genes: wild type NMCMs; for expression of mitosis regulating genes: norepinephrine 1 μM (FIG. 4C); for Wee1 gene expression: norepinephrine 1 μM (FIG. 5E); for expression of clock (circadian) genes: reset with 50% serum, norepinephrine 1 μM, after 48 hrs of treatment (FIG. 4B)
Procedure: Cardiomyocytes were isolated from P0 or P1 mouse hearts using a neonatal cardiomyocyte isolation kit (Miltenyi Biotec) based on manufacturer's instructions. Before plating, cardiomyocytes were filtered through a 70 μm mesh and single cells were cultured in 24-well plates coated with gelatin. The cells were first maintained in 5% fetal bovine serum (FBS) in DMEM with Pen/Strep antibiotics for 24 hours and subsequently treated for at least 2 hours with 50% horse serum in DMEM and then for 2 days with 5% FBS in DMEM. Cardiomyocytes were treated with Norepinephrine (1 μM) (Sigma) or Nerve Growth Factor (NGF, 20 ng/ml) (PeproTech) as indicated.
RNA was isolated from mouse hearts and cultured cardiomyocytes using Trizol, and cDNA was generated using the high-capacity cDNA reverse transcription kit (Applied Biosystems). qPCR reactions were performed using the Sybr Select qPCR mix (Thermo Fisher) with indicated primers. Gene expression levels were normalized to Gapdh or Rpl32.

[2] = system: Per1/Per2 DKO neonatal mouse cardiomyocytes; experiment: Gene expression (qPCR) in cultured cardiomyocytes from Per1/Per2 DKO neonatal mouse hearts after treatment; type: cell-based; details: for expression of cell cycle / mitosis regulating genes: norepinephrine 1 μM (FIG. 4C); for Wee1 gene expression: norepinephrine 1 μM (FIG. 5E)
Text: Sm22a-Cre (017491) and C57BL/6 mice were obtained from Jackson Lab. NGF +/− mice, Per1/Per2 DKO mice, and Mesp1-Cre mice were as described elsewhere (see, e.g., Wheeler et al., Neuron, 82: 587-602 (2014); Muller et al., J. Neurosci., 32: 14885-14898 (2012); and Saga et al., Development, 126: 3437-3447 (1999)). The animals were randomly allocated to experimental groups and both male and female mice were equally used in all experimental assays. All mouse hearts and cardiomyocytes were harvested at random times during the day unless specified otherwise. Cardiomyocytes were isolated from P0 or P1 mouse hearts using a neonatal cardiomyocyte isolation kit (Miltenyi Biotec) based on manufacturer's instructions. Before plating, cardiomyocytes were filtered through a 70 μm mesh and single cells were cultured in 24-well plates coated with gelatin. The cells were first maintained in 5% fetal bovine serum (FBS) in DMEM with Pen/Strep antibiotics for 24 hours and subsequently treated for at least 2 hours with 50% horse serum in DMEM and then for 2 days with 5% FBS in DMEM. Cardiomyocytes were treated with Norepinephrine (1 μM) (Sigma) or Nerve Growth Factor (NGF, 20 ng/ml) (PeproTech) as indicated. RNA was isolated from mouse hearts and cultured cardiomyocytes using Trizol, and cDNA was generated using the high-capacity cDNA reverse transcription kit (Applied Biosystems). qPCR reactions were performed using the Sybr Select qPCR mix (Thermo Fisher) with indicated primers. Gene expression levels were normalized to Gapdh or Rpl32.

Row | Compound | expression of mitosis regulating genes [1] | expression of mitosis regulating genes ([1]; listed as norepinephrine) | Wee1 gene expression [1] | Wee1 gene expression ([1]; listed as norepinephrine) | expression of clock (circadian) genes [1] | expression of clock (circadian) genes ([1]; listed as norepinephrine) | expression of cell cycle / mitosis regulating genes [2] | expression of cell cycle / mitosis regulating genes ([2]; listed as norepinephrine) | Wee1 gene expression [2] | Wee1 gene expression ([2]; listed as norepinephrine) | cell cycle gene expression ([1]; ex vivo treatment of NMCMs with NGF 20 ng/ml (FIG. 9E))
1 | NC[C@H](O)c1ccc(O)c(O)c1 [Norepinephrine] | decreased the expression of mitosis regulating genes | suppressed mitosis genes | induced Wee1 gene expression | induces Wee1 expression | induces the expression of circadian genes | induced Per1 and Per2 as well as Cryptochrome1 (Cry1) and Cry2 genes | failed to suppress mitosis regulating genes apart from Aurkb | no significant effect on cell cycle genes apart from Aurkb | this effect was not observed in Per1/Per2 DKO cardiomyocytes | this effect was not observed in the absence of Per1/Per2 | –
2 | NGF: Nerve Growth Factor (PeproTech), used at 20 ng/ml on neonatal mouse cardiomyocytes | – | – | – | – | – | – | – | – | – | – | did not affect cell cycle gene expression
